# Data as given in article PMC10518255, “A first-in-class pan-lysyl oxidase inhibitor impairs stromal remodeling and enhances gemcitabine response and survival in pancreatic cancer” (Nature Cancer, 2023).
# Tested on: LOX
# Assay: Time-dependent inhibition with pre-incubation 0-240 min (Fig. 2d)
# Format: biochemical
# Source text: Data are presented as mean ± s.d. […] Data presented as mean ± s.d. […] Source data TEXT PRINTED IN THE PICTURE: (b) PXS-5505: Recombinant DAO IC50 (nM): >30,000; Recombinant SSAO/VAP1 IC50 (nM): >30,000; Recombinant MAO-A IC50 (nM): >30,000; Recombinant MAO-B IC50 (nM): >30,000 | (f) PXS-5505: Fibroblast LOX IC50 (nM): 4,930; Recombinant LOXL-1 IC50 (nM): 1,590; Recombinant LOXL-2 IC50 (nM): 570; Recombinant LOXL-3 IC50 (nM): 1,800; Recombinant LOXL-4 IC50 (nM): 190
# Similar to other fluoroallylamine-based amine oxidase inhibitors, the mode of inhibition is assumed to be a two-step mechanism (Fig. 2c), with PXS-5505 reacting with the unique LTQ cofactor found within the active site. The fluoroallylamine facilitates the formation of a covalent, irreversible bond. […] Furthermore, in jump dilution experiments, there is no significant recovery of activity following rapid dilution (LOXL1 (5 ± 5% recovery, n = 4), LOXL2 (7 ± 1.2% recovery, n = 3) and LOXL3 (11 ± 2% recovery, n = 3)).
smiles,measurement,setting,value
"Cl.Cl.NC/C=C(\F)CS(=O)(=O)c1cccc2cccnc12.O [PXS-5505, (Z)-3-fluoro-4-(quinolin-8-ylsulfonyl)but-2-en-1-amine dihydrochloride monohydrate]",LOX specific activity,"pre-incubation 0 min, log conc -4.52288",32.1036
same,LOX specific activity,"pre-incubation 0 min, log conc -5",64.3382
same,LOX specific activity,"pre-incubation 0 min, log conc -5.47756",84.6897
same,LOX specific activity,"pre-incubation 0 min, log conc -5.95468",91.8109
same,LOX specific activity,"pre-incubation 0 min, log conc -6.4318",92.4662
same,LOX specific activity,"pre-incubation 0 min, log conc -6.91009",98.7719
same,LOX specific activity,"pre-incubation 0 min, log conc -7.3851",96.7913
same,LOX specific activity,"pre-incubation 0 min, log conc -7.86328",102.005
same,LOX specific activity,"pre-incubation 0 min, log conc -8.34008",102.107
same,LOX specific activity,"pre-incubation 0 min, log conc -8.81816",98.6554
same,LOX specific activity,"pre-incubation 0 min, log conc -9.29414",106.228
same,LOX specific activity,"pre-incubation 0 min, log conc -9.77126",108.063
same,LOX specific activity,"pre-incubation 15 min, log conc -4.52288",9.177
same,LOX specific activity,"pre-incubation 15 min, log conc -5",32.3488
same,LOX specific activity,"pre-incubation 15 min, log conc -5.47756",65.4986
same,LOX specific activity,"pre-incubation 15 min, log conc -5.95468",81.8309
same,LOX specific activity,"pre-incubation 15 min, log conc -6.4318",89.7677
same,LOX specific activity,"pre-incubation 15 min, log conc -6.91009",93.4569
same,LOX specific activity,"pre-incubation 15 min, log conc -7.3851",96.3684
same,LOX specific activity,"pre-incubation 15 min, log conc -7.86328",90.7581
same,LOX specific activity,"pre-incubation 15 min, log conc -8.34008",96.0493
same,LOX specific activity,"pre-incubation 15 min, log conc -8.81816",95.7037
same,LOX specific activity,"pre-incubation 15 min, log conc -9.29414",99.1403
same,LOX specific activity,"pre-incubation 15 min, log conc -9.77126",98.9675
same,LOX specific activity,"pre-incubation 30 min, log conc -4.52288",2.6085
same,LOX specific activity,"pre-incubation 30 min, log conc -5",10.9871
same,LOX specific activity,"pre-incubation 30 min, log conc -5.47756",44.0429
same,LOX specific activity,"pre-incubation 30 min, log conc -5.95468",69.7571
same,LOX specific activity,"pre-incubation 30 min, log conc -6.4318",82.4602
same,LOX specific activity,"pre-incubation 30 min, log conc -6.91009",92.2531
same,LOX specific activity,"pre-incubation 30 min, log conc -7.3851",91.8445
same,LOX specific activity,"pre-incubation 30 min, log conc -7.86328",100.827
same,LOX specific activity,"pre-incubation 30 min, log conc -8.34008",94.7736
same,LOX specific activity,"pre-incubation 30 min, log conc -8.81816",95.6095
same,LOX specific activity,"pre-incubation 30 min, log conc -9.29414",101.078
same,LOX specific activity,"pre-incubation 30 min, log conc -9.77126",104.925
same,LOX specific activity,"pre-incubation 60 min, log conc -4.52288",-1.9
same,LOX specific activity,"pre-incubation 60 min, log conc -5",1.453
same,LOX specific activity,"pre-incubation 60 min, log conc -5.47756",20.7125
same,LOX specific activity,"pre-incubation 60 min, log conc -5.95468",53.0465
same,LOX specific activity,"pre-incubation 60 min, log conc -6.4318",78.5482
same,LOX specific activity,"pre-incubation 60 min, log conc -6.91009",90.7227
same,LOX specific activity,"pre-incubation 60 min, log conc -7.3851",95.8188
same,LOX specific activity,"pre-incubation 60 min, log conc -7.86328",101.294
same,LOX specific activity,"pre-incubation 60 min, log conc -8.34008",102.525
same,LOX specific activity,"pre-incubation 60 min, log conc -8.81816",100.564
same,LOX specific activity,"pre-incubation 60 min, log conc -9.29414",101.737
same,LOX specific activity,"pre-incubation 60 min, log conc -9.77126",102.743
same,LOX specific activity,"pre-incubation 120 min, log conc -4.52288",2.378
same,LOX specific activity,"pre-incubation 120 min, log conc -5",0.7896
same,LOX specific activity,"pre-incubation 120 min, log conc -5.47756",6.366
same,LOX specific activity,"pre-incubation 120 min, log conc -5.95468",21.6941
same,LOX specific activity,"pre-incubation 120 min, log conc -6.4318",62.059
same,LOX specific activity,"pre-incubation 120 min, log conc -6.91009",92.1986
same,LOX specific activity,"pre-incubation 120 min, log conc -7.3851",91.1259
same,LOX specific activity,"pre-incubation 120 min, log conc -7.86328",98.8619
same,LOX specific activity,"pre-incubation 120 min, log conc -8.34008",100.244
same,LOX specific activity,"pre-incubation 120 min, log conc -8.81816",100.045
same,LOX specific activity,"pre-incubation 120 min, log conc -9.29414",96.9572
same,LOX specific activity,"pre-incubation 120 min, log conc -9.77126",100.753
same,LOX specific activity,"pre-incubation 240 min, log conc -4.52288",-3.18
same,LOX specific activity,"pre-incubation 240 min, log conc -5",0.3645
same,LOX specific activity,"pre-incubation 240 min, log conc -5.47756",8.283
same,LOX specific activity,"pre-incubation 240 min, log conc -5.95468",6.894
same,LOX specific activity,"pre-incubation 240 min, log conc -6.4318",35.306
same,LOX specific activity,"pre-incubation 240 min, log conc -6.91009",69.9646
same,LOX specific activity,"pre-incubation 240 min, log conc -7.3851",87.2279
same,LOX specific activity,"pre-incubation 240 min, log conc -7.86328",94.5493
same,LOX specific activity,"pre-incubation 240 min, log conc -8.34008",99.3255
same,LOX specific activity,"pre-incubation 240 min, log conc -8.81816",102.317
same,LOX specific activity,"pre-incubation 240 min, log conc -9.29414",102.769
same,LOX specific activity,"pre-incubation 240 min, log conc -9.77126",103.159
same,time-dependent inhibition of LOX specific activity,pre-incubation time 0–240 min,increased potency with increased pre-incubation time
